Test results as given in PubChem BioAssay (NCI).
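The compound was tested at five concentrations on cells cultured in 96-well plates, with a 48-hour exposure period. GI50 marks 50% less growth. At the TGI there is no net growth.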

Tests used:
Assay in all cases: NCI tumour cell line growth inhibition, 48 h
786-0 renal = system: 786-0 renal
A498 renal = system: A498 renal
A549 NSCLC = system: A549 NSCLC
ACHN renal = system: ACHN renal
BT-549 breast = system: BT-549 breast
CAKI-1 renal = system: CAKI-1 renal
CCRF-CEM leukemia = system: CCRF-CEM leukemia
COLO 205 colon = system: COLO 205 colon
DU-145 prostate = system: DU-145 prostate
EKVX NSCLC = system: EKVX NSCLC
HCT-116 colon = system: HCT-116 colon
HCT-15 colon = system: HCT-15 colon
HL-60(TB) leukemia = system: HL-60(TB) leukemia
HOP-62 NSCLC = system: HOP-62 NSCLC
HS 578T breast = system: HS 578T breast
IGROV1 ovarian = system: IGROV1 ovarian
KM12 colon = system: KM12 colon
LOX IMVI melanoma = system: LOX IMVI melanoma
M14 melanoma = system: M14 melanoma
MALME-3M melanoma = system: MALME-3M melanoma
MDA-MB-231 breast = system: MDA-MB-231 breast
MDA-MB-435 = system: MDA-MB-435
MOLT-4 leukemia = system: MOLT-4 leukemia
NCI-H226 lung = system: NCI-H226 lung
NCI-H23 lung = system: NCI-H23 lung
NCI-H522 lung = system: NCI-H522 lung
NCI/ADR-RES ovarian = system: NCI/ADR-RES ovarian
OVCAR-4 ovarian = system: OVCAR-4 ovarian
OVCAR-5 ovarian = system: OVCAR-5 ovarian
OVCAR-8 ovarian = system: OVCAR-8 ovarian
PC-3 prostate = system: PC-3 prostate
RXF 393 renal = system: RXF 393 renal
SF-268 CNS = system: SF-268 CNS
SF-295 CNS = system: SF-295 CNS
SF-539 CNS = system: SF-539 CNS
SK-MEL-2 melanoma = system: SK-MEL-2 melanoma
SK-MEL-28 melanoma = system: SK-MEL-28 melanoma
SK-MEL-5 melanoma = system: SK-MEL-5 melanoma
SK-OV-3 ovarian = system: SK-OV-3 ovarian
SN12C renal = system: SN12C renal
SNB-19 CNS = system: SNB-19 CNS
SNB-75 CNS = system: SNB-75 CNS
SW-620 colon = system: SW-620 colon
T-47D breast = system: T-47D breast
TK-10 renal = system: TK-10 renal
U251 CNS = system: U251 CNS
UACC-257 melanoma = system: UACC-257 melanoma
UACC-62 melanoma = system: UACC-62 melanoma
UO-31 renal = system: UO-31 renal
HCC-2998 colon = system: HCC-2998 colon
HOP-92 NSCLC = system: HOP-92 NSCLC
HT29 colon = system: HT29 colon
K-562 leukemia = system: K-562 leukemia
MCF7 breast = system: MCF7 breast
NCI-H460 lung = system: NCI-H460 lung
OVCAR-3 ovarian = system: OVCAR-3 ovarian
RPMI-8226 leukemia = system: RPMI-8226 leukemia
SR leukemia = system: SR leukemia

C=CCCC(=O)N1CCC(C(=O)OCC)C1=O (stereo not drawn)
TGI (786-0 renal): > 100 µM | TGI (A498 renal): > 100 µM | TGI (A549 NSCLC): > 100 µM | TGI (ACHN renal): > 100 µM | TGI (BT-549 breast): > 100 µM | TGI (CAKI-1 renal): > 100 µM | TGI (CCRF-CEM leukemia): > 100 µM | TGI (COLO 205 colon): > 100 µM | TGI (DU-145 prostate): > 100 µM | TGI (EKVX NSCLC): > 100 µM | TGI (HCT-116 colon): > 100 µM | TGI (HCT-15 colon): > 100 µM | TGI (HL-60(TB) leukemia): > 100 µM | TGI (HOP-62 NSCLC): > 100 µM | TGI (HS 578T breast): > 100 µM | TGI (IGROV1 ovarian): > 100 µM | TGI (KM12 colon): > 100 µM | TGI (LOX IMVI melanoma): > 100 µM | TGI (M14 melanoma): > 100 µM | TGI (MALME-3M melanoma): > 100 µM | TGI (MDA-MB-231 breast): > 100 µM | TGI (MDA-MB-435): > 100 µM | TGI (MOLT-4 leukemia): > 100 µM | TGI (NCI-H226 lung): > 100 µM | TGI (NCI-H23 lung): > 100 µM | TGI (NCI-H522 lung): > 100 µM | TGI (NCI/ADR-RES ovarian): > 100 µM | TGI (OVCAR-4 ovarian): > 100 µM | TGI (OVCAR-5 ovarian): > 100 µM | TGI (OVCAR-8 ovarian): > 100 µM | TGI (PC-3 prostate): > 100 µM | TGI (RXF 393 renal): > 100 µM | TGI (SF-268 CNS): > 100 µM | TGI (SF-295 CNS): > 100 µM | TGI (SF-539 CNS): > 100 µM | TGI (SK-MEL-2 melanoma): > 100 µM | TGI (SK-MEL-28 melanoma): > 100 µM | TGI (SK-MEL-5 melanoma): > 100 µM | TGI (SK-OV-3 ovarian): > 100 µM | TGI (SN12C renal): > 100 µM | TGI (SNB-19 CNS): > 100 µM | TGI (SNB-75 CNS): > 100 µM | TGI (SW-620 colon): > 100 µM | TGI (T-47D breast): > 100 µM | TGI (TK-10 renal): > 100 µM | TGI (U251 CNS): > 100 µM | TGI (UACC-257 melanoma): > 100 µM | TGI (UACC-62 melanoma): > 100 µM | TGI (UO-31 renal): > 100 µM

CCC(/C=C(C)/C=C/C(=O)c1c(O)c(-c2ccc(O)cc2)c[nH]c1=O)CO (stereo not drawn)
GI50 (786-0 renal): 8.1 µM | TGI (786-0 renal): 20.6 µM | GI50 (A498 renal): 3.69 µM | TGI (A498 renal): 18.8 µM | GI50 (A549 NSCLC): 20.7 µM | TGI (A549 NSCLC): 93.8 µM | GI50 (ACHN renal): 11.9 µM | TGI (ACHN renal): 37.9 µM | GI50 (CAKI-1 renal): 10.5 µM | TGI (CAKI-1 renal): 47.5 µM | GI50 (CCRF-CEM leukemia): 3.53 µM | TGI (CCRF-CEM leukemia): 26.7 µM | GI50 (COLO 205 colon): 15.5 µM | TGI (COLO 205 colon): 28.8 µM | GI50 (DU-145 prostate): 2830 nM | TGI (DU-145 prostate): 12.5 µM | GI50 (EKVX NSCLC): 15.4 µM | TGI (EKVX NSCLC): 68 µM | GI50 (HCC-2998 colon): 13 µM | TGI (HCC-2998 colon): 25.6 µM | GI50 (HCT-116 colon): 6.61 µM | TGI (HCT-116 colon): 19.2 µM | GI50 (HCT-15 colon): 8.13 µM | TGI (HCT-15 colon): 22.1 µM | GI50 (HL-60(TB) leukemia): 2830 nM | TGI (HL-60(TB) leukemia): 17.4 µM | GI50 (HOP-62 NSCLC): 14.2 µM | TGI (HOP-62 NSCLC): 37.2 µM | GI50 (HOP-92 NSCLC): 8.55 µM | TGI (HOP-92 NSCLC): 82.6 µM | GI50 (HS 578T breast): 2780 nM | TGI (HS 578T breast): 36.1 µM | GI50 (HT29 colon): 13.9 µM | TGI (HT29 colon): 29.2 µM | GI50 (IGROV1 ovarian): 6.11 µM | TGI (IGROV1 ovarian): 42.1 µM | GI50 (K-562 leukemia): 4.11 µM | TGI (K-562 leukemia): 37.4 µM | GI50 (KM12 colon): 4.2 µM | TGI (KM12 colon): 16.1 µM | GI50 (LOX IMVI melanoma): 9.87 µM | TGI (LOX IMVI melanoma): 21.5 µM | GI50 (M14 melanoma): 12.9 µM | TGI (M14 melanoma): 26.7 µM | GI50 (MALME-3M melanoma): 10.3 µM | TGI (MALME-3M melanoma): 26.4 µM | GI50 (MCF7 breast): 4.35 µM | TGI (MCF7 breast): 18.9 µM | GI50 (MDA-MB-231 breast): 9.17 µM | TGI (MDA-MB-231 breast): 29.5 µM | GI50 (MDA-MB-435): 4.34 µM | TGI (MDA-MB-435): 31.9 µM | GI50 (MOLT-4 leukemia): 5.84 µM | TGI (MOLT-4 leukemia): 44.2 µM | GI50 (NCI-H226 lung): 18 µM | TGI (NCI-H226 lung): > 100 µM | GI50 (NCI-H23 lung): 9.55 µM | TGI (NCI-H23 lung): 24.1 µM | GI50 (NCI-H460 lung): 6.15 µM | TGI (NCI-H460 lung): 21.9 µM | GI50 (NCI-H522 lung): 5.56 µM | TGI (NCI-H522 lung): 21 µM | GI50 (NCI/ADR-RES ovarian): 21.6 µM | TGI (NCI/ADR-RES ovarian): > 100 µM | GI50 (OVCAR-3 ovarian): 3.8 µM | TGI (OVCAR-3 ovarian): 16.1 µM | GI50 (OVCAR-4 ovarian): 12 µM | TGI (OVCAR-4 ovarian): > 100 µM | GI50 (OVCAR-5 ovarian): 13 µM | TGI (OVCAR-5 ovarian): 27.1 µM | GI50 (OVCAR-8 ovarian): 8.34 µM | TGI (OVCAR-8 ovarian): > 100 µM | GI50 (PC-3 prostate): 14.3 µM | TGI (PC-3 prostate): 82.1 µM | GI50 (RPMI-8226 leukemia): 6.89 µM | TGI (RPMI-8226 leukemia): 32.3 µM | GI50 (RXF 393 renal): 5.82 µM | TGI (RXF 393 renal): 22.2 µM | GI50 (SF-268 CNS): 6.8 µM | TGI (SF-268 CNS): 21.1 µM | GI50 (SF-295 CNS): 10.1 µM | TGI (SF-295 CNS): 30.9 µM | GI50 (SF-539 CNS): 3.22 µM | TGI (SF-539 CNS): 26 µM | GI50 (SK-MEL-2 melanoma): 16 µM | TGI (SK-MEL-2 melanoma): 52.2 µM | GI50 (SK-MEL-28 melanoma): 11.8 µM | TGI (SK-MEL-28 melanoma): 24.6 µM | GI50 (SK-MEL-5 melanoma): 11.2 µM | TGI (SK-MEL-5 melanoma): 24.3 µM | GI50 (SK-OV-3 ovarian): 23.4 µM | TGI (SK-OV-3 ovarian): 99.5 µM | GI50 (SN12C renal): 11.8 µM | TGI (SN12C renal): 41.9 µM | GI50 (SNB-19 CNS): 11.9 µM | TGI (SNB-19 CNS): 27.4 µM | GI50 (SNB-75 CNS): 6.11 µM | TGI (SNB-75 CNS): 24.5 µM | GI50 (SR leukemia): 2430 nM | TGI (SR leukemia): 13.2 µM | GI50 (SW-620 colon): 10.7 µM | TGI (SW-620 colon): 26.9 µM | GI50 (T-47D breast): 10.6 µM | TGI (T-47D breast): 54.2 µM | GI50 (TK-10 renal): 20.4 µM | TGI (TK-10 renal): 80.8 µM | GI50 (U251 CNS): 6.91 µM | TGI (U251 CNS): 23.9 µM | GI50 (UACC-257 melanoma): 11.3 µM | TGI (UACC-257 melanoma): 25 µM | GI50 (UACC-62 melanoma): 10.2 µM | TGI (UACC-62 melanoma): 23.3 µM | GI50 (UO-31 renal): 6.74 µM | TGI (UO-31 renal): 28.7 µM
